Laboratory results from patent US5563142A, “Diaromatic substituted compounds as anti-HIV-1 agents” (The Upjohn Company, priority 1994, dated 1996).
Counter-ions that a name gives are not always drawn.

Tests used:
[1] = molecular target: T1, viral reverse transcriptase (Human immunodeficiency virus type 1 group M subtype B, UniProt P04585); assay: Viral reverse transcriptase inhibition, cell free assay; assay type: biochemical, human immunodeficiency virus (HIV-1); details: read-out: RT % INHIBITION (100 μM), 100 μM; poly rC or poly rG template
T1 construct: Viral reverse transcriptase is found in extracts from bacterial clones; made in house; host or cells: Escherichia coli (extracts of bacterial clones, by the procedure of Larder et al., EMBO J. 6:3133-3137, 1987)
Summary of the method: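 E. coli-expressed HIV-1 RT extract was incubated with inhibitor, 10 μM [35S]-dNTP, poly rC/rG template and oligo dG/dT primer in Tris pH 8.3 with Mg2+ at 37 °C (30 min; 15 min in an alternative version). DNA incorporation was counted on filters and reported as % inhibition (at 100 μM in one version) and IC50.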

[2] = system: HIV-1 (MT-2 cells infected with HIV-1); assay: Inhibition of HIV-induced syncytia formation in MT-2 cells; assay type: cell-based; details: Human immunodeficiency virus 1, MT2; MT-2 cells infected with HIV-1; read-out: INHIBITION OF SYNCYTIA FORMATION ED50
Text: This test is described in Quantitative Infectivity Assay for HIV-1 and -2., Nature 332: 469-470, 1988 as well as in AIDS RESEARCH AND HUMAN RETROVIRUSES, Vol. 4, No. 6, pages 449-455 (1988), Mary Ann Liebent, Inc., Publishers; in an article entitled "Nucleotide Dimers Suppress HIV Expression In VITRO". The results (IC50 means the concentration, in μM of drug, required to inhibit syncytia formation to the extent of 50%) of various assay(s) are combined and reported as % inhibition and IC50 (calculated).
ability of various compounds used to inhibit HIVinduced syncytia formatio
in a tissue culture assay using MT2 cells infected with HIV1. This test i
described by Nara et al., Quantitative infectivity assay for HIV1 and 2,
Nature 332, 469-470 (1988), as well as in AIDS RESEARCH AND HUMAN
RETROVIRUSES, vol. 4, No. 6, pages 449-455 (1988), Mary Ann Liebent, Inc.
Publishers, and in an article by Mariano Busso, et al., entitled
"Nucleotide Dimers Suppress HIV Expression In Vitro". The results
(ED50 means the concentration, in μM of drug, required to inhibit
syncytia formation to the extent of 50%) of various assay are combined an
reported in Table I. In comparison, the known commercial compound, AZT,
percent reductions in syncytia formation at concentrations of
approximately 1 μM and 0.5 μM, respectively.

[3] = system: HIV in primary human peripheral blood lymphocytes; assay: Primary PBL assay: inhibition of viral replication (p24 & RNA); assay type: cell-based; details: Human immunodeficiency virus 1, Lymphocyte, primary human lymphocytes infected with HIV, days three and four, read-out: PBL INHIBITION OF VIRAL REPLICATION (p24 & RNA) ED50
Summary of the method: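 Mitogen-stimulated human PBLs infected with standardized HIV, cultured with drug 4 days at one tenth of the antiproliferative half-maximal concentration. Secreted p24 by capture-ELISA and total HIV RNA by hybridization on days 3 and 4, with viability in parallel; ED50 is the concentration giving 50% reduction in p24.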

[4] = system: HIV; details: cited from earlier work

| SMILES | inhibition at 100 µM [1] [%] | IC50 [2] [nM] | EC50 [3] [nM] | activity against HIV in vitro [4] |
| --- | --- | --- | --- | --- |
| CC(C)Nc1cccnc1N1CCN(C(=O)c2cc3cc(F)ccc3[nH]2)CC1 [Example 25, 1-[5-Fluoroindolyl-2-carbonyl]-4-[3-(1-methylethylamino)-2-pyridinyl]piperazine] | 96 | 300 to 400 | 3 |  |
| COc1ccc2[nH]c(C(=O)N3CCN(c4ncccc4NC(C)C)CC3)cc2c1 [Example 26, 1-[5-Methoxyindolyl-2-carbonyl]-4-[3-(1-methylethylamino)-2-pyridinyl]piperazine] | 97 | 300 to 500 | 3 |  |
| CCNc1cccnc1N1CCN(C(=O)c2cc3ccccc3o2)CC1 [Example 27, 1[Benzofuroyl-2-carbonyl]-4-[3-(ethylamino) -2-pyridinyl]piperazine] | 37 to 57 | > 1 | 10000 |  |
| CCNc1ccccc1N1CCN(C(=O)c2cc3cc(OC)ccc3[nH]2)CC1 [Example 28, 1-[5-Methoxyindolyl-2-carbonyl]-4-[2-(ethylamino)phenyl]piperazine] | 70 | > 26000 | 100 to 1000 |  |
| CCNc1ccccc1N1CCN(C(=O)c2cc3ccccc3[nH]2)CC1 [Example 29, 1-[Indolyl-2-carbonyl]-4-[2-(ethylamino)phenyl]piperazine] | 75 to 83 | 2800 | 100 to 1000 |  |
| O=C(c1cc2ccccc2[nH]1)N1CCN(c2ncccc2NCC2CC2)CC1 [Example 31, 1-[Indolyl-2-carbonyl]-4-[3-(cyclopropylmethylamino)-2-pyridinyl]piperazine] | 65 to 71 | 3000 | 100 to 1000 |  |
| CC(C)Nc1cccnc1N1CCN(Cc2cc3cc(F)ccc3[nH]2)CC1 [Example 32, 1-[5-Fluoroindolyl-2-methyl]-4-[3-(1-methylethylamino)-2-pyridinyl]piperazine] | 96 | < 300 | 3 to 10 |  |
| CCNc1cccnc1N1CCN(C(=O)c2cc3cc(O)ccc3[nH]2)CC1 [Example 37, 1-[5-Hydroxyindolyl-2-carbonyl]-4-[3-(ethylamino)-2-pyridinyl]piperazine] | 82 to 95 | 300 | 100 |  |
| CCNc1cccnc1N1CCN(C(=O)c2cc3c(C)c(OC)c(C)c(C)c3[nH]2)CC1 [Example 42, 1-[5-Methoxy-4,6,7-trimethylindolyl-2-carbonyl]-4-[3-(ethylamino)-2-pyridinyl]piperazine] | 63 | 2000 | 10000 |  |
| CC(C)(C)Nc1cccnc1N1CCN(C(=O)c2cc3ccccc3[nH]2)CC1 [Example 44, 1-[Indolyl-2-carbonyl]-4-[3-(1,1-dimethylethylamino)-2-pyridinyl]piperazine] | 89 | 100 | 1 to 10 |  |
| COc1ccc2[nH]c(C(=O)N3CCN(c4ncccc4NC(C)(C)C)CC3)cc2c1 [Example 45, 1-[5-Methoxyindolyl-2-carbonyl]-4-[3-(1,1-dimethylethylamino)-2-pyridinyl]piperazine hydrochloride salt] | 83 to 91 | 500 | 10 to 100 |  |
| CC(C)(C)Nc1cccnc1N1CCN(C(=O)c2cc3cc(F)ccc3[nH]2)CC1 [Example 46, 1-[5-Fluoroindolyl-2-carbonyl]-4-[3-(1,1-dimethylethylamino)-2-pyridinyl]piperazine hydrochloride salt] | 89 | 1000 | 1 to 10 |  |
| CCNc1cccnc1N1CCN(C(=O)c2ccc3ccccc3c2)CC1 [Example 66, 1-[Naphthyl-2-carbonyl]-4-[3-(ethylamino)-2-pyridinyl]-piperazine] | 68 to 79 | > 280000 | 1000 to 10000 |  |
| CCNc1cccnc1N1CCN(C(=O)c2ccc[nH]2)CC1 [Example 70, 1-[Pyrrolyl-2-carbonyl]-4-(3-ethylamino-2-pyridinyl)piperazine] | 83 to 91 | 2000 | ≥ 1000 |  |
| CCNc1cccnc1N1CCCN(C(=O)c2cc3ccccc3[nH]2)CC1 [Example 81, 1-[Indolyl-2-carbonyl]-4-(3-ethylamino-2-pyridinyl)-1,4-diazepine] | 90 to 98 | 900 | < 1 |  |
| CCNc1cccnc1N1CCCN(C(=O)c2cc3cc(F)ccc3[nH]2)CC1 [Example 82, 1-(5-Fluoroindolyl-2-carbonyl)-4-(3-ethylamino-2-pyridinyl)-1,4-diazepine] | 87 to 93 | 10000 | 10 to 100 |  |
| CC(C)Nc1cccnc1N1CCCN(C(=O)c2cc3ccccc3[nH]2)CC1 [Example 83, 1-(Indolyl-2-carbonyl)-4-[3-(1-methylethylamino)-2-pyridinyl]-1,4-diazepine] | 97 to 98 | < 300 | < 1 |  |
| CC(C)Nc1cccnc1N1CCN(C(=O)c2cc3cc(N=CN(C)C)ccc3[nH]2)CC1 [Example 85, 1-[(5N-(N',N'-Dimethylaminomethylene)aminoindolyl)carbonyl]-4-(3(1-methylethylamino)-2-pyridinyl)piperazine, methane sulfonate] | 93 to 96 | < 200 | 1 to 10 |  |
| CC(C)Nc1cccnc1N1CCN(C(=O)c2cc3cc(NC(=O)CN)ccc3[nH]2)CC1 [Example 86, 1-[5-(2'-Aminoacetamido)indolyl-2-carbonyl]-4-(3-(1-methylethylamino)-2-pyridinyl)piperazine hydrochloride] | 78 to 96 | < 200 | 1 to 10 |  |
| CCNc1cccnc1N1CCN(C(=O)c2cc3cc(OC)c(OC)cc3[nH]2)CC1 [Example 133] | 76 to 84 | 1000 | 10 |  |
| Nc1ccn([C@H]2CC[C@@H](CO)O2)c(=O)n1 [ddC] |  |  |  | potent activity |
| O=c1[nH]cnc2c1ncn2[C@H]1CC[C@@H](CO)O1 [ddI] |  |  |  | potent activity |
